Laboratory results from ChEMBL document CHEMBL1201862, “PubChem BioAssay data set” (2004).
Calls of active or inactive are those of the source.

Columns and labels:
[1] = target: T1, NADPH oxidase 1 (Homo sapiens, UniProt Q9Y5S8); format: functional, cell-based
T1 sequence (Q9Y5S8 whole entry): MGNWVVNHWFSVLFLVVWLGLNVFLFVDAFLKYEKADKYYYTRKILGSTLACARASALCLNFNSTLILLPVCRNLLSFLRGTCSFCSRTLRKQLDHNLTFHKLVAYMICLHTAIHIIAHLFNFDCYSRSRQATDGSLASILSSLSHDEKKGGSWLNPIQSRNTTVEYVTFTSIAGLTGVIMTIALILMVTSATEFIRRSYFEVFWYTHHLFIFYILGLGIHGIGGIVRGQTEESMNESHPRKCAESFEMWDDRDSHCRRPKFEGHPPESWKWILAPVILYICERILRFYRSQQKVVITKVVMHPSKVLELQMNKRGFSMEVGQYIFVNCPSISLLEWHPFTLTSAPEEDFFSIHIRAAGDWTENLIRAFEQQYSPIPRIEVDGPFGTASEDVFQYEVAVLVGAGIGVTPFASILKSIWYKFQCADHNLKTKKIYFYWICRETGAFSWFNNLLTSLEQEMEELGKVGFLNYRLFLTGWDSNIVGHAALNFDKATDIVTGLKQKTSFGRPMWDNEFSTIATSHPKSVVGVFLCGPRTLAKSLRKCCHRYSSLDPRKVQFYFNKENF

[2] = Luminescence Cell-Based Dose Response HTS to Identify Activators of Luciferase Translation or Activity in H4 […] Cells. [Related pubchem assays: 1829 (Project Summary), 1814 (Primary HTS)]; format: functional
[3] = A High Throughput Confirmatory Assay used to Identify Novel Compounds that Inhibit Mycobacterium Tuberculosis in the absence of Glycerol.; format: functional
[4] = Luminescence Cell-Based Dose Confirmation HTS to Identify Activators of 5'UTR Stem-Loop Driven Alpha-Synuclein mRNA Translation in H4 Neuroglioblastoma Cells. [Related pubchem assays: 1829 (Project Summary), 1814 (Primary HTS)]; format: functional
[5] = test system: H4; assay: Luminescence Cell-Based Dose Response HTS to Identify Activators of 5'UTR Stem-Loop Driven Prion Protein mRNA Translation in H4 Neuroglioblastoma Cells. [Related pubchem assays: 1829 (Project Summary), 1814 (Primary HTS)]; format: functional; conditions: Homo sapiens
[6] = target: T1, NADPH oxidase 1; assay: Late-stage luminescence-based cell-based dose response assay to identify inhibitors of NADPH oxidase 1 (NOX1): Synthesized analogs 3.; format: functional
[7] = test system: Streptococcus; assay: GAS UMAA2166 growth inhibition – luminescence, BacTiterGlo, counter-screen for streptokinase expression inhibitor project, dose response (AID 1915); format: functional, organism-based;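 also: potency for reduction of bacterial viability or growth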
[8] = viability loss of HPDE-C7K cells – cell-based, fluorescence, HTS, primary screen (AID 431); format: functional; conditions: Homo sapiens
[9] = test system: Streptococcus sp. 'group A'; assay: Streptococcus pyogenes SK(-)GAS viability under kanamycin – luminescence, BacTiterGlo, confirmation, counter-screen for streptokinase expression inhibitor project, dose response (AID 1900); format: functional, organism-based
[10] = HPDE-C7 pancreatic duct cell viability loss – fluorescence, HTS (AID 430); format: functional, cell-based; conditions: Homo sapiens
[11] = target: Glyceraldehyde-3-phosphate dehydrogenase (Homo sapiens, UniProt P04406)
[12] = target: T2, Bcl-2-related protein A1 (Mus musculus, UniProt Q07440); assay: small-molecule antagonists of Bfl-1/BH3 interaction – biochemical, TR-FRET, mouse Bfl-1, confirmation (AID 621);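 also: TR-FRET binding of GST-Bfl-1 to FITC-labelled Bid peptide via terbium antibody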
T2 sequence (Q07440 whole entry): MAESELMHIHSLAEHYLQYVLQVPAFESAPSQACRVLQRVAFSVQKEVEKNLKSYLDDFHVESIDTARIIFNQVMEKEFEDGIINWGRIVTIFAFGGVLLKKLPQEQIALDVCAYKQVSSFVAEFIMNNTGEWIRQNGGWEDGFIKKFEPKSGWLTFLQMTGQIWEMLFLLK

[13] = target: T2, Bcl-2-related protein A1; assay: Bfl-1 binding inhibitors, SAR follow-up, biochemical, fluorescence polarization (AID 1070)
[14] = target: Ephrin type-A receptor 4 (Mus musculus, UniProt Q03137); assay: EphA4 ligand-binding antagonists – biochemical, colorimetric, mouse EphA4, primary screen (AID 689); format: functional
[15] = target: T2, Bcl-2-related protein A1; assay: displacement of Bid BH3 peptide from Bfl-1 – biochemical, fluorescence polarization, FITC-Bid, mouse, primary screen (AID 432)
[16] = target: Cytochrome P450 2D6 (Homo sapiens, UniProt P10635);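 also: CYP2D6 member of a cytochrome P450 panel assay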
[17] = target: T3, Aminopeptidase N (Plasmodium falciparum FcB1/Columbia, UniProt O96935); assay: malaria alanyl aminopeptidase activity blockers – biochemical, fluorogenic H-Leu-NHMec substrate, 1536-well (AID 1445); design: species or system Plasmodium falciparum 3D7, 3D7
T3 sequence (O96935 whole entry): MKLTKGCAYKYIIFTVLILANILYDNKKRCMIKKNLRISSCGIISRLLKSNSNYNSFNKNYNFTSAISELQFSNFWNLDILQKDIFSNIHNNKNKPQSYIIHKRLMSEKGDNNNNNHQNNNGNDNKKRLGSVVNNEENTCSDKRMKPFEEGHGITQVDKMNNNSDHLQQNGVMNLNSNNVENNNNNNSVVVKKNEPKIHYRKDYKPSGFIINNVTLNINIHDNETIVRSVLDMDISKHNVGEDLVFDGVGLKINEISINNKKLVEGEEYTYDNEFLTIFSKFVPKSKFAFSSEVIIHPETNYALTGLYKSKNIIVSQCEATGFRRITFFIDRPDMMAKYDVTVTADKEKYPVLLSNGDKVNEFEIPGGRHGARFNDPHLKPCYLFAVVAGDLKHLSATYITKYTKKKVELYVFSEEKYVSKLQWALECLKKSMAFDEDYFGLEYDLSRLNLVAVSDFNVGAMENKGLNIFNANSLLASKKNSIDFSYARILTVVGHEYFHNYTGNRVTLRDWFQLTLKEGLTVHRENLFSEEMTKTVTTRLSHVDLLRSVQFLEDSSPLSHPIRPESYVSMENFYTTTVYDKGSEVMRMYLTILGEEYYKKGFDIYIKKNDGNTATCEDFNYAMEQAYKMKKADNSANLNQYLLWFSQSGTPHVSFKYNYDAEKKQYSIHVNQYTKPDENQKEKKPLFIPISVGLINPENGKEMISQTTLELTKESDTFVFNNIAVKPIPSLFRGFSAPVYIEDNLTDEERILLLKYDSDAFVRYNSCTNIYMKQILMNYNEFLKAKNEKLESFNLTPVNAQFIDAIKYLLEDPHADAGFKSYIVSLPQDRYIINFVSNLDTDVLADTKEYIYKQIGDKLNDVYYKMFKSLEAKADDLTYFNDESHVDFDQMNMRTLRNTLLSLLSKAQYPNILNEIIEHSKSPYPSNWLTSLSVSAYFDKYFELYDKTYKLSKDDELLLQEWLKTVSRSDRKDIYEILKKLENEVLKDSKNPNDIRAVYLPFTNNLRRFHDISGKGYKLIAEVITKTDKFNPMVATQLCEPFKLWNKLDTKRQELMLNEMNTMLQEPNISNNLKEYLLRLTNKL

[18] = target: Aspartyl aminopeptidase (Plasmodium falciparum 3D7, UniProt Q8I2J3); assay: Counterscreen for inhibitors of M1 and M17 aminopeptidases: QFRET-based biochemical high throughput dose response assay for inhibitors of the Plasmodium falciparum M18 Aspartyl Aminopeptidase (PFM18AAP). [Related PubChem assays: 1619 (Screening assay (M17LAP inhibitors).), 1445 (Screening assay (M1AAP inhibitors).)]
[19] = target: Procathepsin L (Homo sapiens, UniProt P07711); assay: CTSL1 protease inhibition – biochemical, QFRET, 1536-well, counter-screen for M1/M17 aminopeptidase inhibitor project, dose response (AID 2214)
[20] = target: T1, NADPH oxidase 1; assay: Late-stage luminescence-based cell-based dose response assay to identify inhibitors of NADPH oxidase 1 (NOX1): Purchased analogs 2.; format: functional
[21] = target: Sphingosine 1-phosphate receptor 2 (Homo sapiens, UniProt O95136); assay: Dose Response Cell Based Assay for Agonists of the S1P2 Receptor of Purchased Analogues. [Related pubchem assays: 729, 843, 854, 736 ]; format: functional
[22] = target: E3 ubiquitin-protein ligase Mdm2 (Homo sapiens, UniProt Q00987); assay: MDM2-luc reporter signal enhancers, multi-concentration potency testing, MDM2 ubiquitin-protein ligase inhibitor program, whole-cell format, luminescence detection, 384-well microplate (AID 1394); format: functional;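 also: MDM2 E3 inhibitors raise luminescence so EC50 is for signal enhancement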
[23] = test system: HT-1080; assay: HT1080 cell viability loss – fluorescence readout (AID 620); format: functional, cell-based; conditions: Homo sapiens
[24] = alpha-synuclein stem-loop luciferase translation blockers – H4 neuroglioma cells, luminescence, confirmation (AID 1988); format: functional, cell-based
[25] = Luminescence Cell-Based Dose Response HTS to Identify Inhibitors of 5'UTR Stem-Loop Driven Prion Protein mRNA Translation in H4 Neuroglioblastoma Cells. [Related pubchem assays: 1827 (Project Summary), 1813 (Primary HTS)]; format: functional
[26] = Luminescence Cell-Based Dose Confirmation HTS to Identify Inhibitors of Polyadenylation.; format: functional
[27] = target: Luciferin 4-monooxygenase (Photinus pyralis, UniProt P08659); assay: Counter Screen for Luciferase-based Assay Positives. [Related pubchem assays: 620, 618, 411 ]
[28] = test system: Vero; assay: inhibition of WNV-induced cytopathic effect – cell-based, CPE readout (AID 1621); format: functional; conditions: Chlorocebus sabaeus
[29] = target: T4, Dual specificity protein phosphatase 3 (Homo sapiens, UniProt P51452); assay: VHR1 phosphatase inhibitors, biochemical (AID 1878)
[30] = target: Likely tRNA 2'-phosphotransferase (Candida albicans (strain SC5314 / ATCC MYA-2876) (Yeast), UniProt Q5A7N4); assay: inhibition of Candida TPT1 enzyme activity – biochemical, fluorescence polarization, dose response (AID 2160)
[31] = target: Voltage-gated inwardly rectifying potassium channel KCNH2 (Homo sapiens, UniProt Q12809); assay: concentration-dependent hERG rescue from blockers – cell-based, thallium flux, dose response (AID 2121); format: ADME
[32] = target: Guanyl-specific ribonuclease T1 (Aspergillus oryzae (strain ATCC 42149 / RIB 40), UniProt P00651); assay: inhibition of ribonuclease T1 activity – biochemical, fluorescence polarization, 1536-well, counter-screen for TPT1 inhibitor project, dose response (AID 2167)
[33] = target: T5, Dual specificity protein phosphatase 6 (Rattus norvegicus, UniProt Q64346); assay: inhibition of rat DUSP6 enzyme activity – biochemical, in vitro, primary screen (AID 425)
T5 sequence (Q64346 whole entry): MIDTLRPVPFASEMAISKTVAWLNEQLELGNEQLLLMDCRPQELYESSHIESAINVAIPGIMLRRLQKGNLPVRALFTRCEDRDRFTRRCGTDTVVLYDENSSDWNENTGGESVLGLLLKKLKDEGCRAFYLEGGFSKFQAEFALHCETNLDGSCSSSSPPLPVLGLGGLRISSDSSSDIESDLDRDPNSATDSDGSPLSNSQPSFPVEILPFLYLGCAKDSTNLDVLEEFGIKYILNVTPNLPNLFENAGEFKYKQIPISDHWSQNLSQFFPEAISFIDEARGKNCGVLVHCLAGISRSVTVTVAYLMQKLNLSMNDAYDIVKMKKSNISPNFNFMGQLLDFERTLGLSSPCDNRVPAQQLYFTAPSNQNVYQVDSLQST

[34] = target: Genome polyprotein (Hepatitis C virus, UniProt Q2Q167); assay: disruption of hepatitis C core self-association – biochemical, TR-FRET, dose response (AID 2159); design: species or system Hepacivirus hominis;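 also: blocks dimerization of HCV core protein measured by TR-FRET between tagged core106 pairs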
[35] = target: T4, Dual specificity protein phosphatase 3; assay: VHR1 phosphatase inhibitors, primary screen, biochemical, absorbance, uHTS (AID 1654)

T4 sequence (P51452 whole entry): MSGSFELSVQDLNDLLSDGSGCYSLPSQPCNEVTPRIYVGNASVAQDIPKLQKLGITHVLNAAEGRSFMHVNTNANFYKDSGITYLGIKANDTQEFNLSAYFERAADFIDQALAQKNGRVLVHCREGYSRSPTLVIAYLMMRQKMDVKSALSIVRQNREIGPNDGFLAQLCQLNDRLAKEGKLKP
Likely tRNA 2'-phosphotransferase, sequence (Q5A7N4 whole entry): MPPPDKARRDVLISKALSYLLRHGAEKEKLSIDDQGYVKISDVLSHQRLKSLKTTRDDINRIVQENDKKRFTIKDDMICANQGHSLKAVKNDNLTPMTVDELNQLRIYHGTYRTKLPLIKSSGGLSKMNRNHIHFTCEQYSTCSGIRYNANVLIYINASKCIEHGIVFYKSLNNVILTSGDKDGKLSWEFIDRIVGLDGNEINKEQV
Guanyl-specific ribonuclease T1, sequence (P00651 whole entry): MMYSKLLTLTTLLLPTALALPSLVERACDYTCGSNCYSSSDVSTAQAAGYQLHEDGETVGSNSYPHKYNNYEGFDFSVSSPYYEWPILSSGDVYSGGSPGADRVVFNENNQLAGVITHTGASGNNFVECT
Genome polyprotein, sequence (Q2Q167 whole entry): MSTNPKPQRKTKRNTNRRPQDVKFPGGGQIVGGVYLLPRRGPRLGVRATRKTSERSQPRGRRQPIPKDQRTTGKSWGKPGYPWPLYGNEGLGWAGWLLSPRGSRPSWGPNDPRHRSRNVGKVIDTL
Glyceraldehyde-3-phosphate dehydrogenase, sequence (P04406 whole entry): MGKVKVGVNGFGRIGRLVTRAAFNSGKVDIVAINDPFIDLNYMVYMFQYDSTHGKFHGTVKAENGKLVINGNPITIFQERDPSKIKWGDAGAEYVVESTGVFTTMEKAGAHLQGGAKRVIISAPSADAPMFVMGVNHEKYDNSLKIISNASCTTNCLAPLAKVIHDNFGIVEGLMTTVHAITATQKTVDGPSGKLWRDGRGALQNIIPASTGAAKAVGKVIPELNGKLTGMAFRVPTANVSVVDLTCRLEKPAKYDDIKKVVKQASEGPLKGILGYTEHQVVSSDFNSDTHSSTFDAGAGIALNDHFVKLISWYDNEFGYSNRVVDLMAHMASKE
Sphingosine 1-phosphate receptor 2, sequence (O95136 whole entry): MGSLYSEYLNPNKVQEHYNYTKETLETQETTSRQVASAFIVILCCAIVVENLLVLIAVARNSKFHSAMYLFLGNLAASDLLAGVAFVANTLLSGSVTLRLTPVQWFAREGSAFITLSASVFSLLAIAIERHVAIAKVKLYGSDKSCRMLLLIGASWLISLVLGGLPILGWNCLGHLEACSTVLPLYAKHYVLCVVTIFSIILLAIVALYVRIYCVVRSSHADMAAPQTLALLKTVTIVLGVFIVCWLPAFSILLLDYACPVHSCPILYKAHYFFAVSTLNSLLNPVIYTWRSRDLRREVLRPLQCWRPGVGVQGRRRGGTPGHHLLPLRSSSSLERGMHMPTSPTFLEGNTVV
Cytochrome P450 2D6, sequence (P10635 whole entry): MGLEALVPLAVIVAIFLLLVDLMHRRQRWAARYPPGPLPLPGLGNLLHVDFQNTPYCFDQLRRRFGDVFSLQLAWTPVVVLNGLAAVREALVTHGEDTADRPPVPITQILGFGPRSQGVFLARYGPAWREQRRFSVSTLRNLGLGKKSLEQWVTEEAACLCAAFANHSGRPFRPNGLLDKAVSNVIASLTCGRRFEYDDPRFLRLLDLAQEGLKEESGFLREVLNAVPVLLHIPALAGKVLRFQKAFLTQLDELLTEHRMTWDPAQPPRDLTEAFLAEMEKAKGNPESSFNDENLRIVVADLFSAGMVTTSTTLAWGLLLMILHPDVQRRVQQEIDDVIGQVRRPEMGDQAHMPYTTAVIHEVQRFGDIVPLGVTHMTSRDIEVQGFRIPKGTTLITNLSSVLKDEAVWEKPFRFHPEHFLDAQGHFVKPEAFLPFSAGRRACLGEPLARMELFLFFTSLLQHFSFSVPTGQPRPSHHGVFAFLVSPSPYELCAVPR
Ephrin type-A receptor 4, sequence (Q03137 whole entry): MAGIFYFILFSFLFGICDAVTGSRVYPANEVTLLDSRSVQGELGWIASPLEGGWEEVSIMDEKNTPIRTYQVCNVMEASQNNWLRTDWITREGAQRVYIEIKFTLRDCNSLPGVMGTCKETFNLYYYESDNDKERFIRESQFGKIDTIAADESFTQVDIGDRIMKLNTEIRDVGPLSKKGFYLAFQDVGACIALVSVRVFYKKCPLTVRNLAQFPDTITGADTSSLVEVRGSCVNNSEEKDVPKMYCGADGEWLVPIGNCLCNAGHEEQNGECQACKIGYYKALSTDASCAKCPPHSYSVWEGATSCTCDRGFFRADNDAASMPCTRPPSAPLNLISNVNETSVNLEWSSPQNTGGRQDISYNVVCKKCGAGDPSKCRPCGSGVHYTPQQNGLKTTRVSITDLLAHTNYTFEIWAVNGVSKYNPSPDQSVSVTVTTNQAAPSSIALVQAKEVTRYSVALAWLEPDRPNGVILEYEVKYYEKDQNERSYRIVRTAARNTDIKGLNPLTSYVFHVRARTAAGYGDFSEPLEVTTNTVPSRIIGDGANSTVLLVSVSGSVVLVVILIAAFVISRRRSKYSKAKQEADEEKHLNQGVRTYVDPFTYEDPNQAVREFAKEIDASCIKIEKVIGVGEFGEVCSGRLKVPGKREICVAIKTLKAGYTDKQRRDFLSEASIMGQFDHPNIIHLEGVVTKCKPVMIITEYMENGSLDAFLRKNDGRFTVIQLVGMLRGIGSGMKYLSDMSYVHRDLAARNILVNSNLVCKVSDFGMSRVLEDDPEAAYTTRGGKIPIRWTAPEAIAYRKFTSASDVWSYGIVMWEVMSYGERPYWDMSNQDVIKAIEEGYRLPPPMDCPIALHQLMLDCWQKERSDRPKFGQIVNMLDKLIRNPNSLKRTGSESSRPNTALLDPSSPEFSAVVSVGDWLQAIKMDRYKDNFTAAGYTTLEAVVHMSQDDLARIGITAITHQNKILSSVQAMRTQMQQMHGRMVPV
Luciferin 4-monooxygenase, sequence (P08659 whole entry): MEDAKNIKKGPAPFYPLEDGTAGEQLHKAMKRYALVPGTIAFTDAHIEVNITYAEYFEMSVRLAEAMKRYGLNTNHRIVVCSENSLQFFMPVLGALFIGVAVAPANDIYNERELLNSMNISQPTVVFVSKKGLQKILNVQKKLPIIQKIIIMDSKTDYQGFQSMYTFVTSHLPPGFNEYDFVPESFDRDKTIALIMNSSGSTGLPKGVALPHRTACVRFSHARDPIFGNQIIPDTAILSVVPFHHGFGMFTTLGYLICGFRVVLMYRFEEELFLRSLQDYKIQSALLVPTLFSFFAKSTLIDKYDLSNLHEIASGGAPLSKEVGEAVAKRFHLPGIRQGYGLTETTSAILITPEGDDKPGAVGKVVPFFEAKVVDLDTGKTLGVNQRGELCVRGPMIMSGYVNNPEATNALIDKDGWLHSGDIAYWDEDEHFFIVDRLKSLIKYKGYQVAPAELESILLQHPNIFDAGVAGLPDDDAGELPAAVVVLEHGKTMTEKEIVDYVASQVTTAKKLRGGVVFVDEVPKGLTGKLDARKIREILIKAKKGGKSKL
Voltage-gated inwardly rectifying potassium channel KCNH2, sequence (Q12809 whole entry): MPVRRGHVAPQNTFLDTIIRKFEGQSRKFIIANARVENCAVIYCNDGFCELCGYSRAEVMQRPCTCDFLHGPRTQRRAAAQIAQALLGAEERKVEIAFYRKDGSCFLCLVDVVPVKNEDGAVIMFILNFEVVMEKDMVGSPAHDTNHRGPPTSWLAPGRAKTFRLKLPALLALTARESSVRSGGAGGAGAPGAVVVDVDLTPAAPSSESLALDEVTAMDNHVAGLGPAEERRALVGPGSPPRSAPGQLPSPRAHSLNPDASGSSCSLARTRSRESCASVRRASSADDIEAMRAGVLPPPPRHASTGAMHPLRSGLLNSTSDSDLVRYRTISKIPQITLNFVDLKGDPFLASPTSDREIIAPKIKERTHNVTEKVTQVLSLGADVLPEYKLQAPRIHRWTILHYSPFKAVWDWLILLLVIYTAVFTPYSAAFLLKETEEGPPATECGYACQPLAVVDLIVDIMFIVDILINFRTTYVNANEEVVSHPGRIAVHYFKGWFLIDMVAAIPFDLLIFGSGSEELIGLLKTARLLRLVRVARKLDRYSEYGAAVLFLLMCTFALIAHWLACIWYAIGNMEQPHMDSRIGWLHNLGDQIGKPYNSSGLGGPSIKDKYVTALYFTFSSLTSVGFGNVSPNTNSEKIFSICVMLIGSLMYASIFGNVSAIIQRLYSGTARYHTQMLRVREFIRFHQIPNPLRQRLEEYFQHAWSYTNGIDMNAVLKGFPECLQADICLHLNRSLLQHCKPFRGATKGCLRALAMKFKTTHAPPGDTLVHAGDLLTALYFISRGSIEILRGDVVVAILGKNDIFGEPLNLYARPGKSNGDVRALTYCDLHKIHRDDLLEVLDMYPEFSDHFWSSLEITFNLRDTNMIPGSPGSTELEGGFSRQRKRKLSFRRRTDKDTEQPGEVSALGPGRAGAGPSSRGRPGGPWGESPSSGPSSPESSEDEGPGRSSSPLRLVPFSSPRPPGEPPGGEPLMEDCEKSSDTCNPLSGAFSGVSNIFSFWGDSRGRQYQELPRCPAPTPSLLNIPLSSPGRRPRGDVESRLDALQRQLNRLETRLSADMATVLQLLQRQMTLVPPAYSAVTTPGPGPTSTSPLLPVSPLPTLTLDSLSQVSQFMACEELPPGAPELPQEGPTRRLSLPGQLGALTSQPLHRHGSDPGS
Procathepsin L, sequence (P07711 whole entry): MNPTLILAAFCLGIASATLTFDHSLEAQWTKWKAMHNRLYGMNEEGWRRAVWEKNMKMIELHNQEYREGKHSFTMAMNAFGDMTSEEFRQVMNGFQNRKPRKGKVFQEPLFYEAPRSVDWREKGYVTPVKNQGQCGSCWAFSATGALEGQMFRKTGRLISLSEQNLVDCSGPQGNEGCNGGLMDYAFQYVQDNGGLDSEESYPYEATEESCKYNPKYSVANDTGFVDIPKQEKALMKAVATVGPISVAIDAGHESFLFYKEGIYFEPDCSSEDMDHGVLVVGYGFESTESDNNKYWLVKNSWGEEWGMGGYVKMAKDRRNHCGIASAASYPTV

Oc1ccccc1-c1nc(-c2ccccc2)c(-c2ccccc2)[nH]1
IC50 [1]: > 17 µM (not active)

COc1ccc2c(c1)CC/C(=C\C=C\c1ccccc1OC)C2=O
EC50 [2]: 1.99 µM (active)
IC50 [3]: > 100 µM (active)
EC50 [4]: > 120 µM (not active)
EC50 [5]: 13.8 µM (active)

CN1c2ccc(N)cc2Sc2cc(C(=O)c3ccccc3)ccc21
IC50 [6]: 0.201 µM (active)

Oc1nc2ccc(Cl)cc2c(-c2ccccc2)c1N1CCN(c2ccccn2)CC1
EC50 [7]: 45.8 µM (active)
EC50 [8]: 8.58 µM (active)
EC50 [9]: 5.29 µM (active)
EC50 [10]: 5.29 µM (active)

O=C1C(Cl)=C(N2CCCCC2)C(=O)N1c1ccc(Cl)c(Cl)c1
IC50 [11]: > 100 µM (not active)
IC50 [12]: 1.3 µM (active)
IC50 [13]: > 100 µM (not active)

CCSc1nnc(NC(=O)C(C(F)(F)F)C(F)(F)F)s1
IC50 [14]: 4.1 µM (active)
IC50 [15]: 2.85 µM (active)
IC50 [12]: 2.66 µM (active)
AC50 [16]: 25.1 µM (inconclusive)

O=C(O)CCC(=O)N1N=C(c2c(-c3ccccc3)c3cc(Cl)ccc3[nH]c2=O)CC1c1ccccc1 (stereo unspecified)
IC50 [17]: 4.6 µM (active)
IC50 [18]: > 73.5 µM (not active)
IC50 [19]: > 59.6 µM (not active)

COc1ccc(/C=N/Nc2c(Cl)cc(Cl)cc2Cl)cc1
IC50 [20]: > 17 µM (not active)

Cc1cc(C(=O)COC(=O)Cn2c(=O)oc3ccccc32)c(C)n1Cc1ccccc1
EC50 [21]: > 30 µM (not active)

CSc1nsc(/C=C/Nc2ccc(F)cc2)c1C#N
EC50 [22]: 2.4 µM (not active)

O=c1c2sc(-c3ccccc3)cc2nc2n1CCC2
EC50 [23]: > 50 µM (not active)
EC50 [24]: 8.3 µM (active)
EC50 [25]: 11.8 µM (inconclusive)
EC50 [26]: > 120 µM (not active)
EC50 [27]: < 0.2 µM (active)

Cc1ccc2cc(C#N)c(N3CCCN(C(S)=NCCCN(C)C)CC3)nc2c1
IC50 [28]: 24.4 µM (active)

Cc1ccccc1N1C(=O)/C(=C/c2ccco2)C(=O)NC1=S
IC50 [29]: < 1.23 µM (inactive)
IC50 [30]: 2.44 µM (active)
EC50 [31]: 0.71 µM (active)
IC50 [32]: > 55.7 µM (not active)
IC50 [33]: < 1.23 µM (not active)
IC50 [34]: 4.78 µM (active)
IC50 [35]: < 1.23 µM (inactive)
